These results are taken from patent US20240382509A1, “Cannabinoids C- and O-glycosides possessing anti-proliferative and anti-metastatic properties and process for preparation thereof” (Council of Scientific and Industrial Research, priority 2021, published 2024).

A word on the IC50: it is the concentration that gives 50% inhibition.

Molecules are shown by their SMILES. Like-named read-outs stand apart in the source and are kept apart here.

Data set [1] is described as follows: MTT cell viability assay, fR2 normal epithelial cells. Type of data set: cell-based, human. The note with it: human, fR2 normal epithelial cells; MTT, 48 h; normal epithelial cell line; read-out: Cytotoxicity (IC50) fR2. As for the experimental part: (§1) Cell viability assay: The cell viability was determined by the standard MTT assay method. Briefly, Panc-1, HCT-116, A549, PC3, MIAPaca-2, HT-29, MDA-MB-231, MCF7 cells, and fR2cells were seeded in 96 well tissue culture plates (Nunc) at a density of 4×10^3 cells per well and treated with varying concentrations of the test compounds in triplicates. DMSO was taken as a vehicle, and its final concentration was maintained at 0.2% in the culture medium. Doxorubicin was employed as a positive control. After 44 h of incubation, MTT dye solution was added into the medium, and cells were incubated for another 4 h at 37° C. in 5% CO2. The amount of colored formazan derivatives formed was measured by taking optical density (OD) using a microplate reader (TECAN, Infinite M200 Pro) at 570 nm, and the percentage of cell viability was calculated. The IC50 values were calculated using GraphPad Prism software (Version 5.0).

The next data set deals with MCF-7 cells. The data set can be described thus: MTT cell viability assay, MCF-7. The data set is classed as cell-based. The note with it: Homo sapiens, MCF7, 48 h, read-out: Cytotoxicity (IC50) MCF-7, MTT, 48 h; breast cancer cell of epithelial origin. As for the experimental part:
as §1
On the technique in general: Tetrazolium dyes change colour on reduction, which living cells bring about.

For the next data set, the system named is Panc-1 cells. The data set can be described thus: MTT cell viability assay, Panc-1. Type of data set: cell-based. The note with it: pancreatic cancer cells. As for the experimental part: as §1
In data set [2] the test system is human colorectal adenocarcinoma cell line (HT-29). Description: MTT cell viability assay, HT-29. Type of data set: cell-based. The settings on record: Homo sapiens, HT-29, 48 h, read-out: Cytotoxicity (IC50) HT-29, MTT, 48 h; human colorectal adenocarcinoma cell line. As for the experimental part:
as §1

The subject of data set [3] is lung adenocarcinoma cells (A549). Description: MTT cell viability assay, A549. The data set is classed as cell-based. The note with it: read-out: Cytotoxicity (IC50) A549, MTT, 48 h. As for the experimental part:
as §1

For data set [4], the system named is MIAPaCa-2 cells. Description: Cell scatter assay. The data set is classed as cell-based, human. The note with it: MIAPaCa-2, 1, 2, 3 μM, 36 h, compared to vehicle and parent molecule. As for the experimental part: Cell scatter assay MIAPaCa-2 cells were seeded onto a 12 well plate at a seeding density of 500 cells/well and kept for 4-5 days, and there was the formation of scatter colonies since the cell line itself is a metastatic cell line. Accordingly, they were treated with 1 μM, 2 μM & 3 μM of compound 2, 2a, 2b, 3, 3a, 4, 4a & 4b for 36 h, and upon termination, they were washed with PBS and observed under an inverted microscope at 20× magnification (FIG. 3).

The subject of data set [5] is MIAPaCa-2 cells. The data set can be described thus: MTT cell viability assay, MIAPaCa-2. Type of data set: cell-based, human. The settings on record: Homo sapiens, MIA PaCa-2, 48 h, read-out: Cytotoxicity (IC50) MIAPaCa-2, MTT, 48 h. As for the experimental part:
as §1

In a further data set the test system is PC3 cells. The data set can be described thus: MTT cell viability assay, PC3. The settings on record: Homo sapiens, PC-3, 48 h, read-out: Cytotoxicity (IC50) PC3, MTT, 48 h. The data set is classed as cell-based. As for the experimental part:
as §1

Another data set relates to HCT-116 cells. The data set can be described thus: MTT cell viability assay, HCT-116. The settings on record: Homo sapiens, HCT-116, 48 h, read-out: Cytotoxicity (IC50) HCT-116, MTT, 48 h; colorectal adenocarcinoma cells. The data set is classed as cell-based. As for the experimental part: as §1

`CCCCCc1cc(O[C@@H]2OC(CO)[C@@H](O)C(O)C2O)c2c(c1)OC(C)(C)c1ccc(C)cc1-2` (stereo partly drawn) [Compound 4a, Cannabinol-1-O-β-D-glucopyranoside]: the IC50 at 48 h in [1] is over 100 µM. The IC50 was determined as 7.74 µM with MCF-7 cells; 3.16 µM in the data set with Panc-1 cells (Homo sapiens, PANC-1, 48 h, read-out: Cytotoxicity (IC50) Panc-1, MTT, 48 h); 3.53 µM in [2]; 3010 nM in [3] (Homo sapiens, A549, 48 h); 2580 nM with MIAPaCa-2 cells [5]; 51.4 µM in the data set on PC3 cells. Moreover, the 50% inhibitory concentration (IC50) with HCT-116 cells amounted to 2.98 µM. Besides, in the data set with MIAPaCa-2 cells [4], the cell scattering entry is recorded as “typical clumping of scatter cells”.

Regarding `CCCCCc1cc(O[C@@H]2OC(CO)[C@@H](O)C(O)C2O)c2c(c1)OC(C)(C)[C@@H]1CC=C(C)C[C@@H]21` (single isomer, unassigned) [Compound 3a, Δ^8-tetrahydrocannabinol-1-O-β-D-glucopyranoside], the IC50 at 48 h in data set [1] was over 100 µM. The IC50 came to 34.9 µM with MCF-7 cells; 3.16 µM in the data set on Panc-1 cells (read-out: Cytotoxicity (IC50) Panc-1, MTT, 48 h); 10.7 µM in data set [2]; 2150 nM in data set [3]; 742 nM in the data set with MIAPaCa-2 cells [5]; 38 µM in the data set with PC3 cells. In the data set with HCT-116 cells, the concentration for half-maximal inhibition (IC50) was 30.2 µM. Also, in the data set on MIAPaCa-2 cells [4], the cell scattering entry was “did not prevent cell scattering”.
